Laboratory results as given in ChEMBL document CHEMBL5321211, “Synthesis and evaluation of anti-yellow fever virus activity of new 6-aryl-3-R-amino-1,2,4-triazin-5(4H)-ones” (Eur J Med Chem, 2023).
pEC50: −log10 of the molar value. Converted amounts (≈) assume the structure as drawn.

Legend:
[1] = Cytotoxicity against African green monkey Vero cells assessed as inhibition of cell growth by neutral red uptake assay; assay type: toxicity, cell-based, Chlorocebus sabaeus
Yellow fever virus [2] = assay: Antiviral activity against Yellow fever virus 17D infected in African green monkey Vero assessed as reduction in cytopathic effect preincubated with compound for 5 mins followed by viral infection and measured at 72 to 120 hrs by neutral red uptake assay; assay type: functional, organism-based
[3] = Selectivity index, ratio of CC50 for cytotoxicity against African green monkey Vero cells to EC50 for antiviral activity against Yellow fever virus 17D infected in African green monkey Vero assessed as reduction in cytopathic effect; assay type: toxicity, cell-based; details: read-out: Ratio CC50/EC50
[4] = Cytotoxicity against African green monkey Vero cells assessed as inhibition of cell growth by visual analysis; assay type: toxicity, cell-based, Chlorocebus sabaeus
[5] = Selectivity index, ratio of IC50 for cytotoxicity against African green monkey Vero cells assessed as inhibition of cell growth by visual analysis to EC50 for antiviral activity against Yellow fever virus 17D infected in African green monkey Vero assessed as reduction in cytopathic effect; assay type: toxicity, cell-based; details: read-out: Ratio IC50/EC50
Yellow fever virus [6] = assay: Antiviral activity against Yellow fever virus 17D infected in African green monkey Vero assessed as reduction in cytopathic effect preincubated with compound for 5 mins followed by viral infection and measured at 72 to 120 hrs by visual analysis; assay type: functional, organism-based
Yellow fever virus [7] = assay: Antiviral activity against Yellow fever virus 17D infected in African green monkey Vero assessed as reduction in virus yield preincubated with compound for 5 mins followed by viral infection and measured at 72 to 120 hrs; assay type: functional; details: time 4325-7205 min
Yellow fever virus [8] = assay: Antiviral activity against Yellow fever virus 17D infected in African green monkey Vero assessed as reduction in cytopathic effect preincubated with compound for 5 mins followed by viral infection and measured at 72 to 120 hrs; assay type: functional, organism-based
[9] = Selectivity index, ratio of IC50 for cytotoxicity against African green monkey Vero cells assessed as inhibition of cell growth by neutral red uptake assay to EC50 for antiviral activity against Yellow fever virus 17D infected in African green monkey Vero assessed as reduction in cytopathic effect; assay type: toxicity, cell-based; details: read-out: Ratio IC50/EC50
Yellow fever virus [10] = assay: Antiviral activity against Yellow fever virus 17D infected in African green monkey Vero assessed as reduction in cytopathic effect preincubated with compound for 5 mins followed by viral infection and measured at 7 days; assay type: functional, organism-based
[11] = Selectivity index, ratio of CC50 for cytotoxicity against human Huh-7 cells to EC50 for antiviral activity against wild typeYellow fever virus infected in human Huh-7 cells assessed as reduction in virus replication; assay type: toxicity, cell-based; details: read-out: Ratio CC50/EC50
Yellow fever virus [12] = assay: Antiviral activity against wild typeYellow fever virus infected in human Huh-7 cells assessed as reduction in virus replication; assay type: functional, organism-based
Yellow fever virus [13] = assay: Antiviral activity against Yellow fever virus; assay type: functional, organism-based
Yellow fever virus [14] = assay: Antiviral activity against Yellow fever virus 17D infected in Huh-7 cells assessed as reduction in cytopathic effect; assay type: functional, organism-based
Yellow fever virus [15] = assay: Antiviral activity against Yellow fever virus African green monkey Vero cells assessed as reduction in cytopathic effect; assay type: functional, organism-based
Yellow fever virus [16] = assay: Antiviral activity against Yellow fever virus infected in human A549 cells assessed as reduction in virus replication; assay type: functional, organism-based
[17] = Selectivity index, ratio of CC50 for cytotoxicity against human A549 cells to EC50 for antiviral activity against Yellow fever virus infected in human A549 cells assessed as reduction in virus replication; assay type: toxicity, cell-based; details: read-out: Ratio CC50/EC50
Yellow fever virus [18] = assay: Antiviral activity against Yellow fever virus 17D assessed as reduction in cytopathic effect incubated for 30 mins; assay type: functional, organism-based; details: 0.5 h
Yellow fever virus [19] = assay: Antiviral activity against Yellow fever virus assessed as reduction in cytopathic effect by neutral red uptake assay; assay type: functional, organism-based

SMILES	IC50 [1]	EC50 (Yellow fever virus [2])	selectivity ratio [9]	other results
COC(=O)c1ccc(Nc2nnc(Cc3ccc(C)cc3)c(=O)[nH]2)cc1	> 100 µg/mL	> 100 µg/mL	–	–
Cc1ccc(Cc2nnc(Nc3cccc(F)c3)[nH]c2=O)cc1	> 100 µg/mL	1 µg/mL (≈ 3.22 µM)	> 14	selectivity ratio [3]: > 53; IC50 [4]: 51 µg/mL (≈ 164 µM); selectivity ratio [5]: 8.2; EC50 (Yellow fever virus [6]): 6.2 µg/mL (≈ 20 µM); EC90 (Yellow fever virus [7]): 65 µg/mL (≈ 209 µM); pEC50 (Yellow fever virus [8]): 4.70; EC50 (Yellow fever virus [10]): 6.2 µg/mL (≈ 20 µM)
CC(C)OC(=O)[C@H](C)N[P@](=O)(OC[C@H]1O[C@@H](n2ccc(=O)[nH]c2=O)[C@](C)(F)[C@@H]1O)Oc1ccccc1 [SOFOSBUVIR]	–	–	–	selectivity ratio [11]: 90; pEC50 (Yellow fever virus [12]): 5.38
COc1ccc(OC)c(Nc2nnc(Cc3ccc(C)cc3)c(=O)[nH]2)c1	16 µg/mL (≈ 45.4 µM)	2.9 µg/mL (≈ 8.23 µM)	5.5	–
Cc1ccc(Cc2nnc(Nc3ccccc3F)[nH]c2=O)cc1	> 100 µg/mL	1 µg/mL (≈ 3.22 µM)	> 19	IC50 [4]: 43 µg/mL (≈ 139 µM); selectivity ratio [5]: 8.6; EC50 (Yellow fever virus [6]): 5 µg/mL (≈ 16.1 µM)
NC(=O)c1nc(F)cnc1O [FAVIPIRAVIR]	–	–	–	pEC50 (Yellow fever virus [13]): 3.48
Cc1ccc(Cc2nnc(Nc3cccc(C)c3)[nH]c2=O)cc1	> 100 µg/mL	0.48 µg/mL (≈ 1.57 µM)	> 29	selectivity ratio [3]: 23; IC50 [4]: 58 µg/mL (≈ 189 µM); EC50 (Yellow fever virus [6]): 10 µg/mL (≈ 32.6 µM); EC90 (Yellow fever virus [7]): 158 µg/mL (≈ 516 µM); pEC50 (Yellow fever virus [8]): 4.48; EC50 (Yellow fever virus [10]): 10 µg/mL (≈ 32.6 µM)
CC(C)c1ccc(Cc2nnc(NCCN3CCOCC3)[nH]c2=O)cc1	> 100 µg/mL	> 100 µg/mL	–	–
Cc1ccc(Cc2nnc(Nc3cc(C)ccc3C)[nH]c2=O)cc1	> 100 µg/mL	23 µg/mL (≈ 71.8 µM)	> 4.3	–
Cc1ccc(Cc2nn3c(=O)c4ccccc4nc3[nH]c2=O)cc1	> 100 µg/mL	> 100 µg/mL	–	–
CC[C@H](C)[C@@H]1N=C(c2ccccc2)c2cc(Cl)ccc2N(CC(=O)O)C1=O	–	–	–	pEC50 (Yellow fever virus [14]): 6.68
COc1ccccc1Nc1nnc(Cc2ccc(C)cc2)c(=O)[nH]1	> 100 µg/mL	0.94 µg/mL (≈ 2.92 µM)	> 31	selectivity ratio [3]: > 36; IC50 [4]: 27 µg/mL (≈ 83.8 µM); selectivity ratio [5]: 6.4; EC50 (Yellow fever virus [6]): 4.2 µg/mL (≈ 13 µM); EC90 (Yellow fever virus [7]): 50 µg/mL (≈ 155 µM); pEC50 (Yellow fever virus [8]): 4.89; EC50 (Yellow fever virus [10]): 4.2 µg/mL (≈ 13 µM)
O=c1[nH]c(Nc2ccc(F)cc2)nnc1Cc1ccc(F)cc1	> 100 µg/mL	> 100 µg/mL	–	–
Nc1c(C(=O)Nc2nnc(-c3ccccc3)s2)sc2nc3c(cc12)CCCCC3	–	–	–	pEC50 (Yellow fever virus [15]): 5.16
O=C1OC2(c3ccccc31)c1cc(I)c(O)c(I)c1Oc1c2cc(I)c(O)c1I [ERYTHROSINE]	–	–	–	pEC50 (Yellow fever virus [16]): 6.24; selectivity ratio [17]: > 263
C/C(=N\Nc1ccccc1)c1sc(-c2cc(Cl)nc(Oc3ccc(Cl)cc3)c2)nc1C	–	–	–	pEC50 (Yellow fever virus [18]): 5.80
CCOc1ccccc1Nc1nnc(Cc2ccc(C)cc2)c(=O)[nH]1	> 100 µg/mL	> 100 µg/mL	–	–

SMILES	IC50 [1]	EC50 (Yellow fever virus [2])	selectivity ratio [9]	other results
CCOC(=O)c1ccc(Nc2nnc(Cc3ccc(C)cc3)c(=O)[nH]2)cc1	> 100 µg/mL	> 100 µg/mL	–	–
CCOc1ccc(Nc2nnc(Cc3ccc(C)cc3)c(=O)[nH]2)cc1	> 100 µg/mL	> 100 µg/mL	–	–
COc1ccc(Nc2nnc(Cc3ccc(C)cc3)c(=O)[nH]2)c(OC)c1	> 100 µg/mL	1 µg/mL (≈ 2.84 µM)	> 17	selectivity ratio [3]: 51; IC50 [4]: 58 µg/mL (≈ 165 µM); selectivity ratio [5]: 17; EC50 (Yellow fever virus [6]): 3.5 µg/mL (≈ 9.93 µM); EC90 (Yellow fever virus [7]): 28 µg/mL (≈ 79.5 µM); pEC50 (Yellow fever virus [8]): 5.00; EC50 (Yellow fever virus [10]): 3.5 µg/mL (≈ 9.93 µM)
COc1ccc(Nc2nnc(Cc3ccc(C(C)C)cc3)c(=O)[nH]2)cc1OC	> 38 µg/mL	> 38 µg/mL	–	–
NC(=O)C1(N2CCCCC2)CCN(C(=O)CSc2nc3ccccc3o2)CC1	–	–	–	pEC50 (Yellow fever virus [19]): 5.13
Cc1ccc(Cc2nnc(NC3CCCCC3)[nH]c2=O)cc1	> 100 µg/mL	30 µg/mL (≈ 101 µM)	> 3.3	–
Cc1ccc(Cc2nnc(Nc3ccccc3)[nH]c2=O)cc1	> 100 µg/mL	6.2 µg/mL (≈ 21.2 µM)	> 7.1	IC50 [4]: 16 µg/mL (≈ 54.7 µM); selectivity ratio [5]: 2.2; EC50 (Yellow fever virus [6]): 7.4 µg/mL (≈ 25.3 µM)
O=c1cnn([C@@H]2O[C@H](CO)[C@@H](O)[C@H]2O)c(=O)[nH]1 [6-AZAURIDINE]	–	–	–	pEC50 (Yellow fever virus [13]): 4.34
COc1ccc(Nc2nnc(Cc3ccc(C)cc3)c(=O)[nH]2)cc1OC	18 µg/mL (≈ 51.1 µM)	11 µg/mL (≈ 31.2 µM)	1.6	–
Cc1ccc(Cc2nnc(Nc3ccc(F)cc3)[nH]c2=O)cc1	> 100 µg/mL	1 µg/mL (≈ 3.22 µM)	> 14	IC50 [4]: 51 µg/mL (≈ 164 µM); selectivity ratio [5]: 5.1; EC50 (Yellow fever virus [6]): 10 µg/mL (≈ 32.2 µM)
Cc1ccc(Cc2nnc(Nc3ccccc3C)[nH]c2=O)cc1	> 100 µg/mL	18 µg/mL (≈ 58.8 µM)	> 5.6	–
NC(=O)c1ncn([C@@H]2O[C@H](CO)[C@@H](O)[C@H]2O)n1 [RIBAVIRIN]	–	–	–	selectivity ratio [11]: 58; pEC50 (Yellow fever virus [12]): 5.31
C[C@@H]1[C@@H](CO)O[C@@H](n2ccc(N)nc2=O)[C@]1(C)O	–	–	–	pEC50 (Yellow fever virus [13]): 6.15
CCn1c(=O)/c(=C2\Sc3c(F)cccc3N2C)s/c1=C\c1cccc[n+]1C	–	–	–	pEC50 (Yellow fever virus [13]): > 6.00
CC(=O)Nc1ccc(Nc2nnc(Cc3ccc(C)cc3)c(=O)[nH]2)cc1	> 100 µg/mL	> 100 µg/mL	–	–
Cc1cccc(Nc2nnc(Cc3ccc(F)cc3)c(=O)[nH]2)c1C	> 100 µg/mL	> 100 µg/mL	–	–
